# Experimental data reported in ChEMBL document CHEMBL3352739, “Comparative in vivo evaluation of polyalkoxy substituted 4H-chromenes and oxa-podophyllotoxins as microtubule destabilizing agents in the phenotypic sea urchin embryo assay” (2014).
# What was measured:
# MDA-MB-435 = assay: Growth inhibition of human MDA-MB-435 cells after 48 hrs by sulforhodamine B assay; format: functional; settings: MDA-MB-435, 48 h
# [1] = Growth inhibition of human UO31 cells after 48 hrs by sulforhodamine B assay; format: functional; settings: UO-31, 48 h
# [2] = Growth inhibition of human HCT15 cells after 48 hrs by sulforhodamine B assay; format: functional; settings: HCT-15, 48 h
# MCF7 = assay: Growth inhibition of human MCF7 cells after 48 hrs by sulforhodamine B assay; format: functional; settings: MCF7, 48 h
# Paracentrotus lividus [3] = assay: Antimitotic microtubule destabilizing activity in Paracentrotus lividus L embryos assessed as induction of cleavage alteration
# 786-0 = assay: Growth inhibition of human 786-0 cells after 48 hrs by sulforhodamine B assay; format: functional; settings: 786-0, 48 h
# [4] = Growth inhibition of human MOLT4 cells after 48 hrs by sulforhodamine B assay; format: functional; settings: MOLT-4, 48 h
# Paracentrotus lividus [5] = assay: Antimitotic microtubule destabilizing activity in Paracentrotus lividus L embryos assessed as induction of embryo spinning
# MDA-MB-468 = assay: Growth inhibition of human MDA-MB-468 cells after 48 hrs by sulforhodamine B assay; format: functional; settings: MDA-MB-468, 48 h
# M14 = assay: Growth inhibition of human M14 cells after 48 hrs by sulforhodamine B assay; format: functional; settings: M14, 48 h
# [6] = Growth inhibition of human COLO205 cells after 48 hrs by sulforhodamine B assay; format: functional; settings: COLO 205, 48 h
# SNB-75 = assay: Growth inhibition of human SNB75 cells after 48 hrs by sulforhodamine B assay; format: functional; settings: SNB-75, 48 h
# [7] = Growth inhibition of human EKVX cells after 48 hrs by sulforhodamine B assay; format: functional
# A549 = assay: Growth inhibition of human A549/ATCC cells after 48 hrs by sulforhodamine B assay; format: functional; settings: A549, 48 h
# SF-268 = assay: Growth inhibition of human SF268 cells after 48 hrs by sulforhodamine B assay; format: functional; settings: SF-268, 48 h
# [8] = Cytotoxicity against human NCI60 cells; format: functional
# CCRF-CEM = assay: Growth inhibition of human CCRF-CEM cells after 48 hrs by sulforhodamine B assay; format: functional
# NCI-H460 = assay: Growth inhibition of human NCI-H460 cells after 48 hrs by sulforhodamine B assay; format: functional; settings: NCI-H460, 48 h
# NCI-H226 = assay: Growth inhibition of human NCI-H226 cells after 48 hrs by sulforhodamine B assay; format: functional; settings: NCI-H226, 48 h
# Paracentrotus lividus [9] = assay: Antimitotic microtubule destabilizing activity in Paracentrotus lividus L embryos assessed as induction of cleavage arrest
# [10] = Growth inhibition of human SF539 cells after 48 hrs by sulforhodamine B assay; format: functional; settings: SF-539, 48 h
# [11] = Growth inhibition of human OVCAR4 cells after 48 hrs by sulforhodamine B assay; format: functional; settings: OVCAR-4, 48 h
# [12] = Growth inhibition of human OVCAR3 cells after 48 hrs by sulforhodamine B assay; format: functional; settings: OVCAR-3, 48 h
# [13] = Growth inhibition of human RXF393 cells after 48 hrs by sulforhodamine B assay; format: functional; settings: RXF 393, 48 h
# DU-145 = assay: Growth inhibition of human DU145 cells after 48 hrs by sulforhodamine B assay; format: functional; settings: DU-145, 48 h
# IGROV-1 = assay: Growth inhibition of human IGROV1 cells after 48 hrs by sulforhodamine B assay; format: functional; settings: IGROV-1, 48 h
# SK-MEL-28 = assay: Growth inhibition of human SK-MEL-28 cells after 48 hrs by sulforhodamine B assay; format: functional; settings: SK-MEL-28, 48 h
# [14] = Growth inhibition of human HCT116 cells after 48 hrs by sulforhodamine B assay; format: functional; settings: HCT-116, 48 h
# [15] = Growth inhibition of human OVCAR5 cells after 48 hrs by sulforhodamine B assay; format: functional; settings: OVCAR-5, 48 h
# [16] = Growth inhibition of human Hs 578T cells after 48 hrs by sulforhodamine B assay; format: functional
# NCI-H23 = assay: Growth inhibition of human NCI-H23 cells after 48 hrs by sulforhodamine B assay; format: functional; settings: NCI-H23, 48 h
# [17] = Growth inhibition of human HCC2998 cells after 48 hrs by sulforhodamine B assay; format: functional; settings: HCC 2998, 48 h
# KM12 = assay: Growth inhibition of human KM12 cells after 48 hrs by sulforhodamine B assay; format: functional; settings: KM12, 48 h
# [18] = Growth inhibition of human UACC62 cells after 48 hrs by sulforhodamine B assay; format: functional; settings: UACC-62, 48 h
# [19] = Growth inhibition of human BT549 cells after 48 hrs by sulforhodamine B assay; format: functional; settings: BT-549, 48 h
# HOP-62 = assay: Growth inhibition of human HOP62 cells after 48 hrs by sulforhodamine B assay; format: functional; settings: HOP-62, 48 h
# CAKI-1 = assay: Growth inhibition of human CAKI-1 cells after 48 hrs by sulforhodamine B assay; format: functional; settings: CAKI-1, 48 h
# TK-10 = assay: Growth inhibition of human TK10 cells after 48 hrs by sulforhodamine B assay; format: functional; settings: TK-10, 48 h
# MDA-MB-231 = assay: Growth inhibition of human MDA-MB-231 cells after 48 hrs by sulforhodamine B assay; format: functional; settings: MDA-MB-231, 48 h
# SK-OV-3 = assay: Growth inhibition of human SKOV3 cells after 48 hrs by sulforhodamine B assay; format: functional; settings: SK-OV-3, 48 h
# [20] = Growth inhibition of human UACC257 cells after 48 hrs by sulforhodamine B assay; format: functional; settings: UACC-257, 48 h
# U-251 = assay: Growth inhibition of human U251 cells after 48 hrs by sulforhodamine B assay; format: functional; settings: U-251, 48 h
# [21] = Growth inhibition of human PC3 cells after 48 hrs by sulforhodamine B assay; format: functional; settings: PC-3, 48 h
# [22] = Growth inhibition of human LOXIMVI cells after 48 hrs by sulforhodamine B assay; format: functional; settings: LOX IMVI
# SK-MEL-2 = assay: Growth inhibition of human SK-MEL-2 cells after 48 hrs by sulforhodamine B assay; format: functional; settings: SK-MEL-2, 48 h
# A498 = assay: Growth inhibition of human A498 cells after 48 hrs by sulforhodamine B assay; format: functional; settings: A498, 48 h
# SNB-19 = assay: Growth inhibition of human SNB19 cells after 48 hrs by sulforhodamine B assay; format: functional; settings: SNB-19, 48 h
# HL-60(TB) = assay: Growth inhibition of human HL-60(TB) cells after 48 hrs by sulforhodamine B assay; format: functional; settings: HL-60, 48 h
# T47D = assay: Growth inhibition of human T47D cells after 48 hrs by sulforhodamine B assay; format: functional
# SR = assay: Growth inhibition of human SR cells after 48 hrs by sulforhodamine B assay; format: functional
# SW-620 = assay: Growth inhibition of human SW620 cells after 48 hrs by sulforhodamine B assay; format: functional; settings: SW-620, 48 h
# [23] = Growth inhibition of human RPMI8226 cells after 48 hrs by sulforhodamine B assay; format: functional; settings: RPMI-8226, 48 h
# SK-MEL-5 = assay: Growth inhibition of human SK-MEL-5 cells after 48 hrs by sulforhodamine B assay; format: functional; settings: SK-MEL-5, 48 h
# NCI-H522 = assay: Growth inhibition of human NCI-H522 cells after 48 hrs by sulforhodamine B assay; format: functional; settings: NCI-H522, 48 h
# HT-29 = assay: Growth inhibition of human HT-29 cells after 48 hrs by sulforhodamine B assay; format: functional; settings: HT-29, 48 h
# [24] = Growth inhibition of human NCI-ADR-RES cells after 48 hrs by sulforhodamine B assay; format: functional
# [25] = Growth inhibition of human OVCAR8 cells after 48 hrs by sulforhodamine B assay; format: functional; settings: OVCAR-8, 48 h
# SN12C = assay: Growth inhibition of human SN12C cells after 48 hrs by sulforhodamine B assay; format: functional
# NCI-H322M = assay: Growth inhibition of human NCI-H322M cells after 48 hrs by sulforhodamine B assay; format: functional
# [26] = Growth inhibition of human SF295 cells after 48 hrs by sulforhodamine B assay; format: functional; settings: SF-295, 48 h
# Malme-3M = assay: Growth inhibition of human MALME-3M cells after 48 hrs by sulforhodamine B assay; format: functional
# [27] = Growth inhibition of human H1299 cells after 48 hrs by sulforhodamine B assay; format: functional; settings: NCI-H1299, 48 h
# ZR-75-1 = assay: Growth inhibition of human ZR-75-1 cells after 48 hrs by sulforhodamine B assay; format: functional; settings: ZR-75-1, 48 h
compound,measurement,setting,value
COc1cccc(C2C(C#N)=C(N)Oc3cc4c(cc32)OCO4)c1 (configuration not stated),GI50,MDA-MB-435,20.3 nM
same,GI50,[1],58.9 nM
same,GI50,[2],44.7 nM
same,GI50,MCF7,36.4 nM
same,EC,Paracentrotus lividus [3],0.005 µM
same,GI50,786-0,58.7 nM
same,GI50,[4],6.17 nM
same,EC,Paracentrotus lividus [5],0.2 µM
same,GI50,MDA-MB-468,25.4 nM
same,GI50,M14,54.9 nM
same,GI50,[6],43.2 nM
same,GI50,SNB-75,23.8 nM
same,GI50,[7],259 nM
same,GI50,A549,62.5 nM
same,GI50,SF-268,54.1 nM
same,GI50,[8],65 nM
same,GI50,CCRF-CEM,36 nM
same,GI50,NCI-H460,44 nM
same,GI50,NCI-H226,45.5 nM
same,EC,Paracentrotus lividus [9],0.05 µM
same,GI50,[10],34.4 nM
same,GI50,[11],2510 nM
same,GI50,[12],25.6 nM
same,GI50,[13],29 nM
same,GI50,DU-145,84.5 nM
same,GI50,IGROV-1,97.3 nM
same,GI50,SK-MEL-28,70 nM
same,GI50,[14],49.8 nM
same,GI50,[15],447 nM
same,GI50,[16],31.6 nM
same,GI50,NCI-H23,97.7 nM
same,GI50,[17],101 nM
same,GI50,KM12,36.5 nM
same,GI50,[18],43.4 nM
same,GI50,[19],87.4 nM
same,GI50,HOP-62,43.2 nM
same,GI50,CAKI-1,40.9 nM
same,GI50,TK-10,6010 nM
same,GI50,MDA-MB-231,2170 nM
same,GI50,SK-OV-3,36.2 nM
same,GI50,[20],47.1 nM
same,GI50,U-251,46.2 nM
same,GI50,[21],65.6 nM
same,GI50,[22],46 nM
same,GI50,SK-MEL-2,30.1 nM
same,GI50,A498,29.1 nM
same,GI50,SNB-19,54.3 nM
same,GI50,HL-60(TB),24.2 nM
same,GI50,T47D,50.2 nM
same,GI50,SR,30.2 nM
same,GI50,SW-620,36.5 nM
same,GI50,[23],105 nM
same,GI50,SK-MEL-5,37.8 nM
same,GI50,NCI-H522,23.1 nM
same,GI50,HT-29,46.2 nM
same,GI50,[24],30.2 nM
same,GI50,[25],97.1 nM
same,GI50,SN12C,79.2 nM
same,GI50,NCI-H322M,2110 nM
same,GI50,[26],34.4 nM
same,GI50,Malme-3M,50.1 nM
COc1cc(OC)cc(C2C(C#N)=C(N)Oc3cc(OC)ccc32)c1 (configuration not stated),EC,Paracentrotus lividus [3],0.0005 µM
same,EC,Paracentrotus lividus [5],0.02 µM
same,EC,Paracentrotus lividus [9],0.005 µM
same,GI50,[27],32 nM
same,GI50,ZR-75-1,9 nM
same,GI50,T47D,14 nM
